One block for each molecule: values may come before it.
Columns and labels:
[1] = target: T1, PTK2-phosphorylation at tyrosine 397 (pY397) (Homo sapiens, UniProt Q05397); assay: Phospho-PTK2 (pY397) Assay in PC-3 cells; type: cell-based; settings: PC-3 prostate carcinoma cells, 2 h incubation; read-out: PC3pPTK2 Y397 EC50
T1 construct: endogenous in cells; host or cells: PC-3 (ATCC CRL-1435)
Method: This cellular test is used to determine the influence of PTK2-inhibitors on the state of the PTK2-phosphorylation at tyrosine 397 (pY397).
PC-3 cells (prostate carcinoma, ATCC CRL-1435) are grown in cell culture flasks (175 cm^2) with F12 Kaighn's Medium (Gibco, No.: 21127) with the addition of 10% foetal calf serum (Invitrogen, No.: 16000-044). The cultures are incubated in the incubator at 37° C. and 5% CO2 and run twice a week.
For the test, 2×10^4 cells pro well/[…] are plated out in 96-well microtitre plates (Costar, No.: 3598) and incubated overnight in the incubator at 37° C. and 5% CO2. The test compounds (10 μL from serial dilution) are added the next day. The concentration of the test compounds usually covers a range of 50 μM and 0.8 nM. The test compounds (stock solution: 10 mM in 100% DMSO) are diluted in medium/medium 10% DMSO such that the final concentration is 1% DMSO. The cells are then incubated in the incubator at 37° C. and 5% CO2 for 2 h. Then the culture supernatant is removed and the cells are fixed with 150 μL 4% formaldehyde in D-PBS for 20 min at RT. The cell lawn is washed five times with 200 μL 0.1% Triton X-100 in D-PBS for 5 min in each case and then incubated for 90 min with blocking buffer (5% skimmed milk powder (Maresi Fixmilch) in TBST (25 mM Tris/HCl, pH 8.0, 150 mM NaCl, 0.05% Tween 20). The blocking buffer is replaced by 50 μL of the first antibody anti-phospho PTK2 [pY397] rabbit monoclonal (Invitrogen/Biosource, No.: 44-625G), which is diluted 1:200 in blocking buffer. For control purposes, alternatively a PTK2 [total] antibody (clone 4.47 mouse monoclonal, Upstate, No.: 05-537), diluted 1:400 in blocking buffer is used. This incubation is carried out at 4° C. overnight. Then the cell lawn is washed five times with 100 μL of 0.1% Tween in D-PBS for 5 min in each case and 50 μL/well of second antibody are added. In order to detect bound phospho-PTK2 [pY397] antibody a goat-anti-rabbit antibody is used which is coupled with horseradish peroxidase (Dako, No.: P0448; 1:500 dilution in blocking buffer). In order to detect bound PTK2 [total]-antibodies a rabbit-anti-mouse antibody is used, which is also coupled with horseradish peroxidase (Dako, No.: PO161; 1:1000 dilution in blocking buffer). This incubation is carried out for 1 h at RT with gentle shaking. The cell lawn is then again washed five times with 100 μL of 0.1% Tween in D-PBS for 5 min in each case. […] The EC50 values are determined from concentration-activity analyses by iterative calculation with the aid of a sigmoidal curve analysis algorithm (FIFTY, based on GraphPAD Prism Version 3.03) with a variable Hill coefficient.

PTK2 = target: T2, PTK2 (Homo sapiens, UniProt Q05397); assay: PTK2 Enzyme Test (DELFIA assay, poly-Glu-Tyr substrate); type: biochemical; settings: active PTK2 enzyme, 50 μM ATP in ATP Mix, 1 h pre-incubation
T2 construct: purchased Invitrogen PV3832
T2 sequence (Q05397 whole entry): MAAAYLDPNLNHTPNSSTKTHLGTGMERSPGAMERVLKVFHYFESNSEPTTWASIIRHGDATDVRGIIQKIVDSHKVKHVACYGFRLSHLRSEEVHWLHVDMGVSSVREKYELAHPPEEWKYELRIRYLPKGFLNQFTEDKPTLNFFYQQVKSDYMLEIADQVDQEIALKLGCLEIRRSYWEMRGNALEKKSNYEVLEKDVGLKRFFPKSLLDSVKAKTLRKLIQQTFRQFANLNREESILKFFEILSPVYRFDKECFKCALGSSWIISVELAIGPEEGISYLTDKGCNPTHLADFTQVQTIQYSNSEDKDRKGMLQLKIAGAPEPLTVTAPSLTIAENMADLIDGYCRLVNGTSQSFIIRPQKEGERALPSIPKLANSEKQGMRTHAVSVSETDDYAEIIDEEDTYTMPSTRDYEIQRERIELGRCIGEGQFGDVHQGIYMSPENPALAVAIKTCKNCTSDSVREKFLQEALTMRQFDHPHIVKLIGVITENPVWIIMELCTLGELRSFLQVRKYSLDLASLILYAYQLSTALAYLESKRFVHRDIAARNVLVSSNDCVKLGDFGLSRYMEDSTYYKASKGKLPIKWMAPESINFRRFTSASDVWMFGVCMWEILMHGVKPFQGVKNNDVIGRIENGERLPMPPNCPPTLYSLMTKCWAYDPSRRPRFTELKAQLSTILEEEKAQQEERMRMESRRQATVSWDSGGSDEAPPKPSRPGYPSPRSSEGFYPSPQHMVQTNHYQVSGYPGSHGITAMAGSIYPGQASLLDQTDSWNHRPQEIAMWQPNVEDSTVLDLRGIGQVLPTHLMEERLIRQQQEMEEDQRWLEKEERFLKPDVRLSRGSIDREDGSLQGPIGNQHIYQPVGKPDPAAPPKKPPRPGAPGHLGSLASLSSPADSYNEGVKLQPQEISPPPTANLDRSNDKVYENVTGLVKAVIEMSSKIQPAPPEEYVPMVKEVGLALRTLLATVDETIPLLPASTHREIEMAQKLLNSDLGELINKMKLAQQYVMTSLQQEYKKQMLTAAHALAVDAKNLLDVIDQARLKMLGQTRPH
Method: This test uses active PTK2 enzyme (Invitrogen Code PV3832) and poly-Glu-Tyr (4:1, Sigma P-0275) as the kinase substrate. The kinase activity is detected by means of the phosphorylation of the substrate in a DELFIA™ assay. The phosphorylated substrate is detected with the Europium-labelled phosphotyrosine antibody PY20 (Perkin Elmer, No.: AD0038).
In order to determine concentration-activity curves with PTK2-inhibitors the compounds are serially diluted in 10% DMSO/H2O and 10 μL of each dilution are dispensed per well in a 96-well microtitre plate (clear U-shaped base plate, Greiner No. 650101) (the inhibitors are tested in duplicates) and mixed with 10 μL/well of PTK2 kinase (0.01 μg/well). PTK2 kinase is diluted accordingly beforehand with kinase dilution buffer (20 mM TRIS/HCl pH 7.5, 0.1 mM EDTA, 0.1 mM EGTA, 0.286 mM sodium orthovanadate, 10% glycerol with the addition of freshly prepared BSA (fraction V 1 mg/mL) and DTT (1 mM)). The test compound and the PTK2 kinase are pre-incubated for 1 h at RT and shaken at 500 rpm. Then 20 μL ATP Mix (30 mM TRIS/HCl pH 7.5, 0.02% Brij, 0.2 mM sodium orthovanadate, 10 mM magnesium acetate, 0.1 mM EGTA, 1× Phosphatase Inhibitor Cocktail 1 (Sigma, No.: P2850), 50 μM ATP (Sigma, No.: A3377; 15 mM stock solution)) are added. The reaction is started by the addition of 10 μL/well of poly (Glu,Tyr) substrate (25 μg/well poly (Glu,Tyr), 0.05 μg/well biotinylated poly (Glu,Tyr) dissolved in 250 mM TRIS/HCl pH 7.5, 9 mM DTT)—the final concentration of DMSO is 2%. After 1 h kinase reaction (the plates are shaken at 500 rpm), the reaction is stopped by the addition of 12 μL/well of 100 mM EDTA, pH 8. And shaken for a further 5 min at RT (500 U/min).
55 μL of the reaction mixture are transferred into a streptavidin plate (Strepta Well High Bind (transparent, 96-well) made by Roche, No.: 11989685001) and incubated for 1 h at RT (shaking at 500 rpm). Then the microtitre plate is washed three times with 200 μL/well D-PBS (Invitrogen, No.:14190). 100 μL of 1:2000 diluted DELFIA Eu-N1 Anti-Phosphotyrosine PY20 antibody (Perkin Elmer, No.: AD0038, 1:2000 diluted in DELFIA test buffer (Perkin Elmer, No.: 1244-111)) is then added and it is incubated for 1 h at RT (shaking at 500 rpm). Then the plate is washed three times with 200 μL/well DELFIA washing buffer (Perkin Elmer, No.: 1244-114), 200 μL/well strengthening solution (Perkin Elmer, No.: 1244-105) is added and the whole is incubated for 10 min at RT (shaking at 300 rpm).
The time-delayed europium fluorescence is then measured in a microtitre plate reader (Victor, Perkin Elmer). The positive control consists of wells that contain solvent (2% DMSO in test buffer) and display uninhibited kinase activity. Wells that contain test buffer instead of enzyme act as a control for the background kinase activity.
The IC50 values are determined from concentration-activity analyses by iterative calculation using a sigmoidal curve analysis algorithm (FIFTY, based on GraphPAD Prism Version 3.03) with a variable Hill coefficient.

T1 sequence (Q05397 whole entry): as above

SMILES: COc1cc(C(=O)N[C@H]2CCN(C)C2)c(Cl)cc1Nc1ncc(C(F)(F)F)c(NCc2ccc(C)cc2N(C)S(C)(=O)=O)n1 [Example 120]
EC50 [1]: 3 nM | IC50 (PTK2): 3 nM

SMILES: COc1cc(C(=O)N[C@H]2CC[C@H](N3C[C@@H](C)O[C@@H](C)C3)CC2)ccc1Nc1ncc(C(F)(F)F)c(NCc2ccc(C)cc2N(C)S(C)(=O)=O)n1 [Example 114]
EC50 [1]: 3 nM | IC50 (PTK2): 4 nM

SMILES: COc1cc(CNCCN(C)C)ccc1Nc1ncc(C(F)(F)F)c(NCc2ccc(C)cc2N(C)S(C)(=O)=O)n1 [Example 88]
EC50 [1]: 1 nM | IC50 (PTK2): 4 nM

SMILES: COc1cc(C(=O)NC2CCN(C3CCOCC3)CC2)ccc1Nc1ncc(C(F)(F)F)c(NCc2ccc(Cl)cc2N(C)S(C)(=O)=O)n1 [Example 94]
EC50 [1]: 2 nM | IC50 (PTK2): 2 nM

SMILES: COc1cc(Nc2ncc(C(F)(F)F)c(NCc3ccc(C)cc3N(C)S(C)(=O)=O)n2)ccc1NC(C)=O [Example 103]
EC50 [1]: 2 nM | IC50 (PTK2): 0.8 nM

SMILES: COc1cc(C(=O)NC2CCN(C3COC3)CC2)c(F)cc1Nc1ncc(C(F)(F)F)c(NCc2ccc(C)cc2N(C)S(C)(=O)=O)n1 [Example 93]
EC50 [1]: 2 nM | IC50 (PTK2): 5 nM

SMILES: COc1cc(C(=O)NC2CCC(N3CCN(CC4CC4)CC3)CC2)c(C)cc1Nc1ncc(C(F)(F)F)c(NCc2ccc(C)cc2N(C)S(C)(=O)=O)n1 (stereo not shown) [Example 107]
EC50 [1]: 2 nM | IC50 (PTK2): 4 nM

SMILES: COc1ccc(CNc2nc(Nc3ccc(NC(C)=O)c(C)c3)ncc2C(F)(F)F)c(N(C)S(C)(=O)=O)c1 [Example 118]
EC50 [1]: 3 nM | IC50 (PTK2): 1 nM

SMILES: COc1cc(C(=O)NC2CC(N3CCN(CC4CC4)CC3)C2)ccc1Nc1ncc(C(F)(F)F)c(NCc2ccc(C)cc2N(C)S(C)(=O)=O)n1 (stereo not shown) [Example 97]
EC50 [1]: 2 nM | IC50 (PTK2): 3 nM

SMILES: COc1cc(N2CCN(C)CC2)ccc1Nc1ncc(C(F)(F)F)c(NCc2ccc(C)cc2N(C)S(C)(=O)=O)n1 [Example 79]
EC50 [1]: 1 nM | IC50 (PTK2): 2 nM

SMILES: COc1cc(CNC(C)C)ccc1Nc1ncc(C(F)(F)F)c(NCc2ccc(C)cc2N(C)S(C)(=O)=O)n1 [Example 89]
EC50 [1]: 1 nM | IC50 (PTK2): 2 nM

SMILES: COC(=O)Nc1cc(OC)c(Nc2ncc(C(F)(F)F)c(NCc3ccc(F)cc3N(C)S(C)(=O)=O)n2)cc1C [Example 126]
EC50 [1]: 3 nM | IC50 (PTK2): 6 nM

SMILES: COc1cc(C(=O)N[C@H]2CC[C@@H]3[C@@H](CCN3C)C2)ccc1Nc1ncc(C(F)(F)F)c(NCc2ccc(C)cc2N(C)S(C)(=O)=O)n1 [Example 65]
EC50 [1]: 0.67 nM | IC50 (PTK2): 4 nM

SMILES: COc1cc(C(=O)NC2CCOCC2)ccc1Nc1ncc(C(F)(F)F)c(NCc2ccc(C)cc2N(C)S(C)(=O)=O)n1 [Example 60]
EC50 [1]: 0.6 nM | IC50 (PTK2): 4 nM

SMILES: COc1cc(C(=O)NC(C)(C)C)c(F)cc1Nc1ncc(C(F)(F)F)c(NCc2ccc(C)cc2N(C)S(C)(=O)=O)n1 [Example 113]
EC50 [1]: 3 nM | IC50 (PTK2): 5 nM

SMILES: COc1cc(C(=O)NC2CCN(C)CC2)c(F)cc1Nc1ncc(C(F)(F)F)c(NCc2ccc(Cl)cc2N(C)S(C)(=O)=O)n1 [Example 90]
EC50 [1]: 2 nM | IC50 (PTK2): 1 nM

SMILES: COc1cc(C(=O)N[C@@H]2CCN(C)C[C@@H]2F)ccc1Nc1ncc(C(F)(F)F)c(NCc2ccc(C)cc2N(C)S(C)(=O)=O)n1 [Example 106]
EC50 [1]: 2 nM | IC50 (PTK2): 4 nM

Other lines, results leading:

EC50 [1]: 0.16 nM | IC50 (PTK2): 4 nM
SMILES: COc1cc(C(=O)NC2CC(C)(C)N(C)C(C)(C)C2)ccc1Nc1ncc(C(F)(F)F)c(NCc2ccc(C)cc2N(C)S(C)(=O)=O)n1 [Example 11]

EC50 [1]: 0.59 nM | IC50 (PTK2): 3 nM
SMILES: COc1cc(C(=O)N[C@@H]2CCN(C)C2)c(Cl)cc1Nc1ncc(C(F)(F)F)c(NCc2ccc(C)cc2N(C)S(C)(=O)=O)n1 [Example 58]

EC50 [1]: 0.22 nM | IC50 (PTK2): 3 nM
SMILES: COc1cc(C(=O)N[C@H]2CCN(C)C[C@H]2F)c(F)cc1Nc1ncc(C(F)(F)F)c(NCc2ccc(C)cc2N(C)S(C)(=O)=O)n1 [Example 22]

EC50 [1]: 0.4 nM | IC50 (PTK2): 2 nM
SMILES: COc1cc(C(=O)NC2CCN(C)CC2)c(F)cc1Nc1ncc(C(F)(F)F)c(NCc2ccc(C)cc2N(C)S(C)(=O)=O)n1 [Example 43]

EC50 [1]: 0.11 nM | IC50 (PTK2): 1 nM
SMILES: COc1cc(CN(C)C)ccc1Nc1ncc(C(F)(F)F)c(NCc2ccc(C)cc2N(C)S(C)(=O)=O)n1 [Example 3]

EC50 [1]: 0.25 nM | IC50 (PTK2): 3 nM
SMILES: COc1cc(C(=O)NC2CCC3C(CCN3C)C2)ccc1Nc1ncc(C(F)(F)F)c(NCc2ccc(C)cc2N(C)S(C)(=O)=O)n1 (stereo not shown) [Example 26]

EC50 [1]: 0.17 nM | IC50 (PTK2): 4 nM
SMILES: COCCNC(=O)c1ccc(Nc2ncc(C(F)(F)F)c(NCc3ccc(C)cc3N(C)S(C)(=O)=O)n2)c(OC)c1 [Example 14]

EC50 [1]: 0.22 nM | IC50 (PTK2): 5 nM
SMILES: CCOCCNC(=O)c1ccc(Nc2ncc(C(F)(F)F)c(NCc3ccc(C)cc3N(C)S(C)(=O)=O)n2)c(OC)c1 [Example 21]

EC50 [1]: 0.52 nM | IC50 (PTK2): 2 nM
SMILES: CCc1cc(C(=O)NC2CCN(C)CC2)ccc1Nc1ncc(C(F)(F)F)c(NCc2ccc(C)cc2N(C)S(C)(=O)=O)n1 [Example 50]

EC50 [1]: 0.27 nM | IC50 (PTK2): 4 nM
SMILES: COc1cc(C(=O)NC2CCC(NS(C)(=O)=O)CC2)ccc1Nc1ncc(C(F)(F)F)c(NCc2ccc(C)cc2N(C)S(C)(=O)=O)n1 (stereo not shown) [Example 27]

EC50 [1]: 0.14 nM | IC50 (PTK2): 2 nM
SMILES: COc1cc(C(=O)N[C@@H]2CCCN(C(C)C)C2)ccc1Nc1ncc(C(F)(F)F)c(NCc2ccc(C)cc2N(C)S(C)(=O)=O)n1 [Example 10]

EC50 [1]: 0.51 nM | IC50 (PTK2): 4 nM
SMILES: COc1cc(C(=O)NC2CCC(NC(C)=O)CC2)ccc1Nc1ncc(C(F)(F)F)c(NCc2ccc(C)cc2N(C)S(C)(=O)=O)n1 (stereo not shown) [Example 48]

Source: patent publication US8377943B2, “2,4-diaminopyrimidine derivates as PTK2-inhibitors for the treatment of abnormal cell growth” (Boehringer Ingelheim International GmbH, priority 2008, dated 2013)
